Results: patent US20100204224A1, “AZACYCLIC COMPOUNDS AS INHIBITORS OF SENSORY NEURONE SPECIFIC SODIUM CHANNELS” (priority 2005, published 2010)
Structures can show the parent of a compound that is named as a salt.

Target: T1, human Nav1.8 (hNav1.8) ion channel (Homo sapiens, UniProt Q9Y5Y9)
T1 construct: expressed in transfected cells
Test: Inhibition of human Nav1.8 stably expressed in SH-SY-5Y cells (membrane potential dye fluorescence assay)
Type: cell-based
Conditions: SH-SY-5Y hNav1.8 cells; FLIPR membrane potential dye; 10 μM pyrethroid, 250 nM TTX; test concentration range 100 μM-0.05 μM; read-out: hNav1.8 IC50
Experimental: Inhibition of Human Nav1.8 stably expressed in SH-SY-5Y Cells
A SH-SY-5Y neuroblastoma cell line stably expressing the human Nav1.8 (hNav1.8) ion channel was constructed. This cell line has been used to develop a medium to high throughput assay for determining the ability of test compounds to inhibit membrane depolarisation mediated via the hNav1.8 channel.
SH-SY-5Y hNav1.8 are grown in adherent monolayer culture using 50:50 Ham's F-12/EMEM tissue culture medium supplemented with 15% (v/v) foetal bovine serum; 2 mM L-glutamine, 1% NEAR and 600 μg·ml^−1 Geneticin sulphate. Cells are removed from the tissue culture flask using trypsin/EDTA and re-plated into black walled, clear bottom 96-well assay plates at 50,000 cells·well^−1 24 hours prior to assay.
On the day of assay the cell assay plates are washed to remove cell culture medium using a sodium free assay buffer (145 mM tetramethyl ammonium chloride; 2 mM calcium chloride; 0.8 mM magnesium chloride hexahydrate; 10 mM HEPES; 10 mM glucose; 5 mM potassium chloride, pH 7.4). Fluorescent membrane potential dye solution (FLIPR™ membrane potential dye, Molecular Devices Corporation), containing 10 μM of a pyrethroid to prevent channel inactivation and 250 nM tetrodotoxin (TTX) to reduce interference from TTX-sensitive sodium channels present in the cell line. Test compound, initially dissolved in dimethyl sulfoxide but further diluted in sodium free buffer, is added to achieve the final test concentration range of 100 μM-0.05 μM.
Cell plates are incubated for 30 minutes at room temperature to allow equilibration of dye and test compound. Plates are then transferred to a fluorescence plate reader for fluorescence measurement using an excitation wavelength of 530 nm whilst measuring fluorescence emission at 565 nm. Baseline fluorescence levels are first determined before the addition of a sodium containing buffer (220 mM sodium chloride; 2 mM calcium chloride; 0.8 mM magnesium chloride hexahydrate; 10 mM HEPES; 10 mM glucose; 5 mM potassium chloride. pH 7.4) to cause membrane depolarisation in those cells where channel block has not been effected (final sodium concentration=72.5 mM). Membrane depolarisation is registered by an increase in fluorescence emission at 565 nm.
The change in fluorescence seen in each test well upon the addition of sodium containing buffer is calculated relative to the baseline fluorescence for that well. This figure is then used for calculating the IC50 for each test compound.

T1 sequence (Q9Y5Y9 whole entry): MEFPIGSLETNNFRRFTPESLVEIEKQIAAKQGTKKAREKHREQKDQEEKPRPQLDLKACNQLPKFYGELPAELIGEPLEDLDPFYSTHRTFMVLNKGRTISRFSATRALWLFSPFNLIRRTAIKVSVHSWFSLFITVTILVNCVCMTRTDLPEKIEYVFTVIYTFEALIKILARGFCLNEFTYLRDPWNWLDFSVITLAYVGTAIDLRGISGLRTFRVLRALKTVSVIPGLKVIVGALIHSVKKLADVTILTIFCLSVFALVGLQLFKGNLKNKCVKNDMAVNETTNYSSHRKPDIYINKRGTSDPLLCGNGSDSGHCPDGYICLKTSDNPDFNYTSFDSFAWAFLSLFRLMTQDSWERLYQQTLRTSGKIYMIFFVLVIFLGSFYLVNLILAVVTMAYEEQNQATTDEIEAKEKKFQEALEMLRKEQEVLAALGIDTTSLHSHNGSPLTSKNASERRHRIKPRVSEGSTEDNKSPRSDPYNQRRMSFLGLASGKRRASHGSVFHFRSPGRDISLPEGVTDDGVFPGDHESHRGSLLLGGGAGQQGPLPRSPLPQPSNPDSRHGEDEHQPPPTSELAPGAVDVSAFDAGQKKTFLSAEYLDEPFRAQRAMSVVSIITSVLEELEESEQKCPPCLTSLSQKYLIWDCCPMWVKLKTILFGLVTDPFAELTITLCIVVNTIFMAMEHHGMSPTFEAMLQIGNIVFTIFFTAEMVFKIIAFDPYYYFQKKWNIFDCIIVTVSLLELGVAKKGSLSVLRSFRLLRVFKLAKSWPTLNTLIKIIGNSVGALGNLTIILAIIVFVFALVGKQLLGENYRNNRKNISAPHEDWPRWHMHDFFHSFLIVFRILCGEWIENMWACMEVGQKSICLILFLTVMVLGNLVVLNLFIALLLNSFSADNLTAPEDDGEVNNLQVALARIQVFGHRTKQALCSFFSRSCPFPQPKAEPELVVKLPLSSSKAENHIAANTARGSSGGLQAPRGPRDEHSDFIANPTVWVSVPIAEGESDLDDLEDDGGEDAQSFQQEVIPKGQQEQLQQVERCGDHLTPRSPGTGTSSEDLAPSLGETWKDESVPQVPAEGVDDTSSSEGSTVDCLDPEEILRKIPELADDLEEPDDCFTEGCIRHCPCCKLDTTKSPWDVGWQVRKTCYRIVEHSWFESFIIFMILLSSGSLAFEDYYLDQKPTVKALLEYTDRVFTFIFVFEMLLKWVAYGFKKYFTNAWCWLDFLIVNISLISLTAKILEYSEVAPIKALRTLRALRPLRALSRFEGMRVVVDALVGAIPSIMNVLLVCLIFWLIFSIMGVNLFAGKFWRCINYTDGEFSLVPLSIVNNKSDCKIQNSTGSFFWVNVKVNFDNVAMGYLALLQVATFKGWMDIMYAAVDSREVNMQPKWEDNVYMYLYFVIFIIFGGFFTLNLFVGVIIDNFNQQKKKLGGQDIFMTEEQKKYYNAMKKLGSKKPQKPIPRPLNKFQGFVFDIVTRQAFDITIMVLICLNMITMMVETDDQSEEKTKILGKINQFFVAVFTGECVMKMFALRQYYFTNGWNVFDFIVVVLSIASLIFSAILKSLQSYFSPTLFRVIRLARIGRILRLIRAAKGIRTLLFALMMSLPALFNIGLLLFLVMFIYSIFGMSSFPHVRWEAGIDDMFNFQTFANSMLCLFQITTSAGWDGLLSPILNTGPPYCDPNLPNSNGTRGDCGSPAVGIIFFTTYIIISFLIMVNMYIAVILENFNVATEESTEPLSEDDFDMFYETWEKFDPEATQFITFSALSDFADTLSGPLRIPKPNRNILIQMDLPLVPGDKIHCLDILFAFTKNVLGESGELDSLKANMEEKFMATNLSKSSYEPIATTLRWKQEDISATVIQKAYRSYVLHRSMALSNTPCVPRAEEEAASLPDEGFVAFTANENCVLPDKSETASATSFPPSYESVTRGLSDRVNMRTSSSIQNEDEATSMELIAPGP

SMILES	IC50
Cc1ccccc1C(C)N1CC2CC1CN2C(=O)Nc1ccc(C(O)c2ccccc2)cc1 (stereo not shown) [Example 68, 5-(1-o-Tolyl-ethyl)-2,5-diaza-bicyclo[2.2.1]heptane-2-carboxylic acid [4-(hydroxy-phenyl-methyl)-phenyl]-amide]	6.15 µM
CCCCOc1ccc(NC(=O)N2CC3CC2CN3Cc2sccc2C)cc1 (stereo not shown) [Example 3, 5-(3-Methyl-thiophen-2-ylmethyl)-2,5-diaza-bicyclo[2.2.1]heptane-2-carboxylic acid (4-butoxy-phenyl)-amide]	1.03 µM
CC(c1ccccc1Cl)N1CC2CC1CN2C(=O)Nc1ccc(Oc2cccc(F)c2)cc1 (stereo not shown) [Example 108, 5-[1-(2-Chloro-phenyl)-ethyl]-2,5-diaza-bicyclo[2.2.1]heptane-2-carboxylic acid [4-(3-fluoro-phenoxy)-phenyl]-amide]	0.6 µM
O=C(NCc1ccc(Oc2ccc(F)cc2)cc1)N1CC2CC1CN2C1Cc2ccc(F)cc2C1 (stereo not shown) [Example 146, 5-(5-Fluoro-indan-2-yl)-2,5-diaza-bicyclo[2.2.1]heptane-2-carboxylic acid 4-(4-fluoro-phenoxy)-benzylamide]	1.28 µM
CC(c1ccc(F)cc1Cl)N1CC2CC1CN2C(=O)Nc1ccc(Oc2ccc(F)cc2)cc1 (stereo not shown) [Example 132, 5-[1-(2-Chloro-4-fluoro-phenyl)-ethyl]-2,5-diaza-bicyclo[2.2.1]heptane-2-carboxylic acid [4-(4-fluoro-phenoxy)-phenyl]-amide]	1.14 µM
O=C(Nc1ccc(Oc2ccccc2)cc1)N1CC2CC1CN2C1Cc2ccccc2C1 (stereo not shown) [Example 105, 5-Indan-2-yl-2,5-diaza-bicyclo[2.2.1]heptane-2-carboxylic acid (4-phenoxy-phenyl)-amide]	0.2 µM
Cc1ccc(C(C)N2CC3CC2CN3C(=O)Nc2ccc(Oc3ccc(F)cc3)cc2)c(C)c1 (stereo not shown) [Example 116, 5-[1-(2,4-Dimethyl-phenyl)-ethyl]-2,5-diaza-bicyclo[2.2.1]heptane-2-carboxylic acid [4-(4-fluoro-phenoxy)-phenyl]-amide]	0.29 µM
CC(c1ccccc1C(F)(F)F)N1CC2CC1CN2C(=O)Nc1ccc(Oc2ccccc2)cc1 (single isomer, unassigned) [Example 60, 5-[1-(2-Trifluoromethyl-phenyl)-ethyl]-2,5-diaza-bicyclo[2.2.1]heptane-2-carboxylic acid (4-phenoxy-phenyl)-amide]	1.48 µM
CC(Cc1ccccc1F)N1CC2CC1CN2C(=O)Nc1ccc(C(F)(F)F)cc1 (stereo not shown) [Example 79, 5-[2-(2-Fluoro-phenyl)-1-methyl-ethyl]-2,5-diaza-bicyclo[2.2.1]heptane-2-carboxylic acid (4-trifluoromethyl-phenyl)-amide]	0.78 µM
CC(c1ccc(F)cc1)N1CC2CC1CN2C(=O)Nc1cccc(Oc2ccccc2)c1 (stereo not shown) [Example 52, 5-[1-(4-Fluoro-phenyl)-ethyl]-2,5-diaza-bicyclo[2.2.1]heptane-2-carboxylic acid (3-phenoxy-phenyl)-amide]	0.9 µM
O=C(c1ccc(C(F)(F)F)cc1)N1CC2CC1CN2C1CCc2ccccc2C1 (stereo not shown) [Example 137, [5-(1,2,3,4-Tetrahydro-naphthalen-2-yl)-2,5-diaza-bicyclo[2.2.1]hept-2-yl]-(4-trifluoromethyl-phenyl)-methanone]	23.2 µM
CC(c1ccccn1)N1CC2CC1CN2C(=O)c1ccc(Oc2ccc(F)cc2)cc1 (stereo not shown) [Example 181, [4-(4-Fluoro-phenoxy)-phenyl]-[5-(1-pyridin-2-yl-ethyl)-2,5-diaza-bicyclo[2.2.1]hept-2-yl]-methanone]	9.93 µM
CC(c1ccc(F)cc1)N1CC2CC1CN2C(=O)Nc1ccc(C(F)(F)F)cc1 (stereo not shown) [Example 46, 5-[1-(4-Fluoro-phenyl)-ethyl]-2,5-diaza-bicyclo[2.2.1]heptane-2-carboxylic acid (4-trifluoromethyl-phenyl)-amide]	1.31 µM
Cc1ccc(Oc2ccc(NC(=O)N3CC4CC3CN4C(C)c3ccc(Cl)cc3Cl)cc2)cc1 (stereo not shown) [Example 123, 5-[1-(2,4-Dichloro-phenyl)-ethyl]-2,5-diaza-bicyclo[2.2.1]heptane-2-carboxylic acid (4-p-tolyloxy-phenyl)-amide]	20.8 µM
Cc1cc(F)ccc1C(C)N1CC2CC1CN2C(=O)Nc1ccc(Oc2ccc(F)cc2)cc1 (stereo not shown) [Example 75, 5-[1-(4-Fluoro-2-methyl-phenyl)-ethyl]-2,5-diaza-bicyclo[2.2.1]heptane-2-carboxylic acid [4-(4-fluoro-phenoxy)-phenyl]-amide]	0.57 µM
C=CCOc1ccc(NC(=O)N2CC3CC2CN3C(C)c2ccccc2C)cc1 (stereo not shown) [Example 20, 5-(1-o-Tolyl-ethyl)-2,5-diaza-bicyclo[2.2.1]heptane-2-carboxylic acid (4-allyloxy-phenyl)-amide]	3.42 µM
O=C(Nc1ccc(Oc2ccccc2F)cc1)N1CC2CC1CN2C1Cc2ccccc2C1 (stereo not shown) [Example 113, 5-Indan-2-yl-2,5-diaza-bicyclo[2.2.1]heptane-2-carboxylic acid [4-(2-fluoro-phenoxy)-phenyl]-amide]	0.54 µM
CC(c1ccccc1Cl)N1CC2CC1CN2C(=O)c1ccc(Oc2ccc(F)cc2)c(F)c1 (stereo not shown) [Example 178, {5-[1-(2-Chloro-phenyl)-ethyl]-2,5-diaza-bicyclo[2.2.1]hept-2-yl}-[3-fluoro-4-(4-fluoro-phenoxy)-phenyl]-methanone methanesulfonate salt]	0.61 µM
O=C(Nc1ccc(Oc2ccc(F)cc2)cc1)N1CC2CC1CN2C1CCc2cc(F)ccc21 (stereo not shown) [Example 92, 5-(5-Fluoro-indan-1-yl)-2,5-diaza-bicyclo[2.2.1]heptane-2-carboxylic acid [4-(4-fluoro-phenoxy)-phenyl]-amide]	0.36 µM
CC(c1ccc(Cl)cc1Cl)N1CC2CC1CN2C(=O)Nc1ccc(Oc2ccc(F)cc2)cc1 (stereo not shown) [Example 118, 5-[1-(2,4-Dichloro-phenyl)-ethyl]-2,5-diaza-bicyclo[2.2.1]heptane-2-carboxylic acid [4-(4-fluoro-phenoxy)-phenyl]-amide]	17.6 µM
COCCOc1ccc(NC(=O)N2CC3CC2CN3C(C)c2ccccc2C)cc1 (stereo not shown) [Example 19, 5-(1-o-Tolyl-ethyl)-2,5-diaza-bicyclo[2.2.1]heptane-2-carboxylic acid [4-(2-methoxy-ethoxy)-phenyl]-amide]	≥ 30 µM
O=C(Nc1ccc(Oc2ccc(F)cc2)cc1)N1CC2CC1CN2C1CCc2ccccc2C1 (stereo not shown) [Example 97, 5-(1,2,3,4-Tetrahydro-naphthalen-2-yl)-2,5-diaza-bicyclo[2.2.1]heptane-2-carboxylic acid [4-(4-fluoro-phenoxy)-phenyl]-amide]	0.31 µM

Same assay, conditions: hNav1.8 IC50, SH-SY-5Y hNav1.8 cells; FLIPR membrane potential dye; 10 μM pyrethroid, 250 nM TTX; test concentration range 100 μM-0.05 μM

SMILES	IC50
CC(c1ccccc1Cl)N1CC2CC1CN2C(=O)Cc1ccc(Oc2ccc(F)cc2)cc1 (stereo not shown) [Example 135, 1-{5-[1-(2-Chloro-phenyl)-ethyl]-2,5-diaza-bicyclo[2.2.1]hept-2-yl}-2-[4-(4-fluoro-phenoxy)-phenyl]-ethanone]	0.94 µM
O=C(Cc1ccc(Oc2ccc(F)cc2)cc1)N1CC2CC1CN2C1CCc2cc(F)ccc2C1 (stereo not shown) [Example 144, 2-[4-(4-Fluoro-phenoxy)-phenyl]-1-[5-(6-fluoro-1,2,3,4-tetrahydro-naphthalen-2-yl)-2,5-diaza-bicyclo[2.2.1]hept-2-yl]-ethanone]	1.6 µM
CC(c1c(F)cccc1Cl)N1CC2CC1CN2C(=O)Cc1ccc(Oc2ccc(F)cc2)cc1 (single isomer, unassigned) [Example 165, 1-{5-[1-(2-Chloro-6-fluoro-phenyl)-ethyl]-2,5-diaza-bicyclo[2.2.1]hept-2-yl}-2-[4-(4-fluoro-phenoxy)-phenyl]-ethanone]	1.23 µM
Cc1ccccc1C(C)N1CC2CC1CN2C(=O)Nc1ccc(Oc2ccc(F)cc2)cc1 (single isomer, unassigned) [Example 74, 5-(1-o-Tolyl-ethyl)-2,5-diaza-bicyclo[2.2.1]heptane-2-carboxylic acid [4-(4-fluoro-phenoxy)-phenyl]-amide]	0.11 µM
CC(c1c(F)cccc1Cl)N1CC2CC1CN2C(=O)Cc1ccc(Oc2ccc(F)cc2)cc1 (single isomer, unassigned) [Example 166, 1-{5-[1-(2-Chloro-6-fluoro-phenyl)-ethyl]-2,5-diaza-bicyclo[2.2.1]hept-2-yl}-2-[4-(4-fluoro-phenoxy)-phenyl]-ethanone]	3.91 µM
Cc1ccccc1C(C)N1CC2CC1CN2C(=O)Cc1ccc(Oc2ccccc2)cc1 (stereo not shown) [Example 37, 2-(4-Phenoxy-phenyl)-1-[5-(1-o-tolyl-ethyl)-2,5-diaza-bicyclo[2.2.1]hept-2-yl]-ethanone]	0.96 µM
